Assay results: article PMC8164802, “Biological evaluation of Safrole oil and Safrole oil Nanoemulgel as antioxidant, antidiabetic, antibacterial, antifungal and anticancer” (BMC Complementary Medicine and Therapies, 2021)

Target: T1, porcine pancreatic α-amylase (Sus scrofa, UniProt P00690)
T1 construct: gene AMY2
Assay: DNSA colorimetric assay of starch hydrolysis, […] nm
Assay type: biochemical

T1 sequence (P00690 16-511): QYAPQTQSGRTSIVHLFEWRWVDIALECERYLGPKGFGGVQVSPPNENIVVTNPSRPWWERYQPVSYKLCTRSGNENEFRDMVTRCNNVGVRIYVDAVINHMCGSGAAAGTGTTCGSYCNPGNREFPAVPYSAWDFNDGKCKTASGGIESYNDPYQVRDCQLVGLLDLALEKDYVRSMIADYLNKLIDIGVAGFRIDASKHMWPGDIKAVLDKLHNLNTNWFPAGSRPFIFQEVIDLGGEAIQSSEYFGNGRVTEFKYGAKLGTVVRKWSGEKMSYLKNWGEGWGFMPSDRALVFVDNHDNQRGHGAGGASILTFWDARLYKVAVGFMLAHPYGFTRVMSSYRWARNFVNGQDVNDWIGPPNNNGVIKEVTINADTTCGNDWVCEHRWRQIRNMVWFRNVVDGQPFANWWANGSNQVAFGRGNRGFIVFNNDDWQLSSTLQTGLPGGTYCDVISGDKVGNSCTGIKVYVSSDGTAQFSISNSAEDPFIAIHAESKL

Compound: C=CCc1ccc2c(c1)OCO2 [Safrole, 1-allyl-3,4-methylenedioxybenzene]
- IC50: 70 µM
